Where a SMILES comes first, the peptide text is derived from it. Bridges are numbered along the chain shown (N, C = ends). [ ]: non-standard residue; d: D form. The star is where a group is joined. Trp(1-CH2COOH) = N[C@@H](Cc1cn(CC(=O)O)c2ccccc12)C(=O)O; Hyp = O=C(O)[C@@H]1C[C@@H](O)CN1; X16 = c1ccc2c(c1)sc1c(*)ncnc12; X2 = CSc1nc(*)c2sc3ccccc3c2n1; X5 = c1ccc2c(c1)oc1c(*)ncnc12; NMeNle = CCCC[C@H](NC)C(=O)O; X18 = c1ccc(-c2ccnc(*)n2)cc1; X4 = c1nc(*)c2c3c(sc2n1)CCC3; NMeA = CN[C@@H](C)C(=O)O; Dab = NCC[C@H](N)C(=O)O; Dap = NC[C@H](N)C(=O)O; X6 = c1ccc2nc(*)cnc2c1; X9 = Fc1cccc2sc(*)nc12; X1 = c1ccc2sc(*)nc2c1; X15 = c1cnc(*)cn1
Each molecule was assayed against T1, PD-1/PD-L1 interaction (PD-1-Ig / PD-L1-His) (Homo sapiens, UniProt Q9NZQ7) (assay: PD-1/PD-L1 Homogenous Time-Resolved Fluorescence (HTRF) binding assay). Conditions: PD-L1-His 10 nM final, PD-1-Ig 20 nM final; inhibitors pre-incubated with PD-L1-His for 15 m.
T1 construct: TVMV protease site (linker) (C); made in house; host or cells: HEK293T cells
T1 sequence (Q9NZQ7 18-239): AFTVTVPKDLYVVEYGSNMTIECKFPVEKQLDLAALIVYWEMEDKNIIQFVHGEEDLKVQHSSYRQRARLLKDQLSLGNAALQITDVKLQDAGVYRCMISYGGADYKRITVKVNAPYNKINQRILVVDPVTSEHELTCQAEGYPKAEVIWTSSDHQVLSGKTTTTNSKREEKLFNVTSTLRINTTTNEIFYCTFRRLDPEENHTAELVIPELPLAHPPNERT
Source text: The ability of the compounds of formula (I) to bind to PD-L1 was investigated using a PD-1/PD-L1 Homogenous Time-Resolved Fluorescence (HTRF) binding assay.
The interaction of PD-1 and PD-L1 can be assessed using soluble, purified preparations of the extracellular domains of the two proteins. The PD-1 and PD-L1 protein extracellular domains were expressed as fusion proteins with detection tags, for PD-1, the tag was the Fc portion of Immunoglobulin (PD-1-Ig) and for PD-L1 it was the 6 histidine motif (PD-L1-His). All binding studies were performed in an HTRF assay buffer consisting of dPBS supplemented with 0.1% […] bovine serum albumin and 0.05% (v/v) Tween-20. For the h/PD-L1-His binding assay, inhibitors were pre-incubated with PD-L1-His (10 nM final) for 15 m in 4 μl of assay buffer, followed by addition of PD-1-Ig (20 nM final) in 1 μl of assay buffer and further incubation for 15 m. HTRF detection was achieved using europium crypate-labeled anti-Ig (1 nM final) and allophycocyanin (APC) labeled anti-His (20 nM final). Antibodies were diluted in HTRF detection buffer and 5 μl was dispensed on top of the binding reaction. The reaction mixture was allowed to equilibrate for 30 minutes and the resulting signal (665 nm/620 nm ratio) was obtained using an EnVision fluorometer. Additional binding assays were established between the human proteins PD-1-Ig/PD-L2-His (20 & 5 nM, respectively) and CD80-His/PD-L1-Ig (100 & 10 nM, respectively).
Recombinant Proteins: Human PD-1 (25-167) with a C-terminal human Fc domain of immunoglobulin G (Ig) epitope tag [hPD-1 (25-167)-3S-IG] and human PD-L1 (18-239) with a C-terminal His epitope tag [hPD-L1(18-239)-TVMV-His] were expressed in HEK293T cells and purified sequentially by ProteinA affinity chromatography and size exclusion chromatography. Human PD-L2-His and CD80-His was obtained through commercial sources.
Table 1 lists the IC50 values for representative examples of this disclosure measured in the PD-1/PD-L1 Homogenous Time-Resolved Fluorescence (HTRF) binding assay.

SMILES	IC50 [nM]
CCCC[C@H]1C(=O)N(C)[C@@H](CCCC)C(=O)N[C@@H](CC(C)C)C(=O)N[C@H](C(=O)NCC(N)=O)CSCC(=O)N[C@@H](Cc2ccc(O)cc2)C(=O)N(C)[C@@H](C)C(=O)N[C@@H](CC(N)=O)C(=O)N2CCC[C@H]2C(=O)N[C@@H](CNc2nc3c(F)cccc3s2)C(=O)N[C@@H](CC(C)C)C(=O)N2C[C@H](O)C[C@H]2C(=O)N[C@@H](Cc2c[nH]c3ccccc23)C(=O)N[C@@H](CCN)C(=O)N[C@@H](Cc2cn(CC(=O)O)c3ccccc23)C(=O)N1C [Compound 11008] ({CH2CO}-Y[NMeA]NP[Dap](X9)L[Hyp]W[Dab][Trp(1-CH2COOH)][NMeNle][NMeNle]LCG-NH2; thioether N-14)	5.3
CCCC[C@H]1C(=O)N(C)[C@@H](CCCC)C(=O)N[C@@H](CC(C)C)C(=O)N[C@H](C(=O)NCC(N)=O)CSCC(=O)N[C@@H](Cc2ccc(O)cc2)C(=O)N(C)[C@@H](C)C(=O)N[C@@H](CC(N)=O)C(=O)N2CCC[C@H]2C(=O)N[C@@H](CNc2nc3c(F)cccc3s2)C(=O)N[C@@H](CC(C)C)C(=O)N2C[C@H](O)C[C@H]2C(=O)N[C@@H](Cc2c[nH]c3ccccc23)C(=O)N[C@@H](CCNc2nc3c(F)cccc3s2)C(=O)N[C@@H](Cc2cn(CC(=O)O)c3ccccc23)C(=O)N1C [Compound 11007] ({CH2CO}-Y[NMeA]NP[Dap](X9)L[Hyp]W[Dab](X9)[Trp(1-CH2COOH)][NMeNle][NMeNle]LCG-NH2; thioether N-14)	4
CCCC[C@H]1C(=O)N(C)[C@@H](CCCC)C(=O)N[C@@H](CC(C)C)C(=O)N[C@H](C(=O)NCC(N)=O)CSCC(=O)N[C@@H](Cc2ccc(O)cc2)C(=O)N(C)[C@@H](C)C(=O)N[C@@H](CC(N)=O)C(=O)N2CCC[C@H]2C(=O)N[C@@H](CNc2cnccn2)C(=O)N[C@@H](CC(C)C)C(=O)N2C[C@H](O)C[C@H]2C(=O)N[C@@H](Cc2c[nH]c3ccccc23)C(=O)N[C@@H](CCNc2cnccn2)C(=O)N[C@@H](Cc2cn(CC(=O)O)c3ccccc23)C(=O)N1C [Compound 1004] ({CH2CO}-Y[NMeA]NP[Dap](X15)L[Hyp]W[Dab](X15)[Trp(1-CH2COOH)][NMeNle][NMeNle]LCG-NH2; thioether N-14)	5.1
CCCC[C@H]1C(=O)N(C)[C@@H](CCCC)C(=O)N[C@@H](CC(C)C)C(=O)N[C@H](C(=O)NCC(N)=O)CSCC(=O)N[C@@H](Cc2ccc(O)cc2)C(=O)N(C)[C@@H](C)C(=O)N[C@@H](CC(N)=O)C(=O)N2CCC[C@H]2C(=O)N[C@@H](CNc2ncnc3c2oc2ccccc23)C(=O)N[C@@H](CC(C)C)C(=O)N2C[C@H](O)C[C@H]2C(=O)N[C@@H](Cc2c[nH]c3ccccc23)C(=O)N[C@@H](CCN)C(=O)N[C@@H](Cc2cn(CC(=O)O)c3ccccc23)C(=O)N1C [Compound 21013] ({CH2CO}-Y[NMeA]NP[Dap](X5)L[Hyp]W[Dab][Trp(1-CH2COOH)][NMeNle][NMeNle]LCG-NH2; thioether N-14)	3.4
CCCC[C@H]1C(=O)N(C)[C@@H](CCCC)C(=O)N[C@@H](CC(C)C)C(=O)N[C@H](C(=O)NCC(N)=O)CSCC(=O)N[C@@H](Cc2ccc(O)cc2)C(=O)N(C)[C@@H](C)C(=O)N[C@@H](CC(N)=O)C(=O)N2CCC[C@H]2C(=O)N[C@@H](CNc2ncnc3sc4c(c23)CCC4)C(=O)N[C@@H](CC(C)C)C(=O)N2C[C@H](O)C[C@H]2C(=O)N[C@@H](Cc2c[nH]c3ccccc23)C(=O)N[C@@H](CCN)C(=O)N[C@@H](Cc2cn(CC(=O)O)c3ccccc23)C(=O)N1C [Compound 21011] ({CH2CO}-Y[NMeA]NP[Dap](X4)L[Hyp]W[Dab][Trp(1-CH2COOH)][NMeNle][NMeNle]LCG-NH2; thioether N-14)	2.6

Other lines, results leading:

IC50 [nM]	SMILES
14	CCCC[C@H]1C(=O)N(C)[C@@H](CCCC)C(=O)N[C@@H](CC(C)C)C(=O)N[C@H](C(=O)NCC(N)=O)CSCC(=O)N[C@@H](Cc2ccc(O)cc2)C(=O)N(C)[C@@H](C)C(=O)N[C@@H](CC(N)=O)C(=O)N2CCC[C@H]2C(=O)N[C@@H](CNc2ncnc3sc4c(c23)CCC4)C(=O)N[C@@H](CC(C)C)C(=O)N2C[C@H](O)C[C@H]2C(=O)N[C@@H](Cc2c[nH]c3ccccc23)C(=O)N[C@@H](CCNc2ncnc3sc4c(c23)CCC4)C(=O)N[C@@H](Cc2cn(CC(=O)O)c3ccccc23)C(=O)N1C [Compound 21012] ({CH2CO}-Y[NMeA]NP[Dap](X4)L[Hyp]W[Dab](X4)[Trp(1-CH2COOH)][NMeNle][NMeNle]LCG-NH2; thioether N-14)
7.1	CCCC[C@H]1C(=O)N(C)[C@@H](CCCC)C(=O)N[C@@H](CC(C)C)C(=O)N[C@H](C(=O)NCC(N)=O)CSCC(=O)N[C@@H](Cc2ccc(O)cc2)C(=O)N(C)[C@@H](C)C(=O)N[C@@H](CC(N)=O)C(=O)N2CCC[C@H]2C(=O)N[C@@H](CNc2cnc3ccccc3n2)C(=O)N[C@@H](CC(C)C)C(=O)N2C[C@H](O)C[C@H]2C(=O)N[C@@H](Cc2c[nH]c3ccccc23)C(=O)N[C@@H](CCN)C(=O)N[C@@H](Cc2cn(CC(=O)O)c3ccccc23)C(=O)N1C [Compound 11003] ({CH2CO}-Y[NMeA]NP[Dap](X6)L[Hyp]W[Dab][Trp(1-CH2COOH)][NMeNle][NMeNle]LCG-NH2; thioether N-14)
5.7	CCCC[C@H]1C(=O)N(C)[C@@H](CCCC)C(=O)N[C@@H](CC(C)C)C(=O)N[C@H](C(=O)NCC(N)=O)CSCC(=O)N[C@@H](Cc2ccc(O)cc2)C(=O)N(C)[C@@H](C)C(=O)N[C@@H](CC(N)=O)C(=O)N2CCC[C@H]2C(=O)N[C@@H](CNc2ncnc3c2sc2ccccc23)C(=O)N[C@@H](CC(C)C)C(=O)N2C[C@H](O)C[C@H]2C(=O)N[C@@H](Cc2c[nH]c3ccccc23)C(=O)N[C@@H](CCNc2ncnc3c2sc2ccccc23)C(=O)N[C@@H](Cc2cn(CC(=O)O)c3ccccc23)C(=O)N1C [Compound 21014] ({CH2CO}-Y[NMeA]NP[Dap](X16)L[Hyp]W[Dab](X16)[Trp(1-CH2COOH)][NMeNle][NMeNle]LCG-NH2; thioether N-14)
4	CCCC[C@H]1C(=O)N(C)[C@@H](CCCC)C(=O)N[C@@H](CC(C)C)C(=O)N[C@H](C(=O)NCC(N)=O)CSCC(=O)N[C@@H](Cc2ccc(O)cc2)C(=O)N(C)[C@@H](C)C(=O)N[C@@H](CC(N)=O)C(=O)N2CCC[C@H]2C(=O)N[C@@H](CNc2nc3ccccc3s2)C(=O)N[C@@H](CC(C)C)C(=O)N2C[C@H](O)C[C@H]2C(=O)N[C@@H](Cc2c[nH]c3ccccc23)C(=O)N[C@@H](CCN)C(=O)N[C@@H](Cc2cn(CC(=O)O)c3ccccc23)C(=O)N1C [Compound 11001] ({CH2CO}-Y[NMeA]NP[Dap](X1)L[Hyp]W[Dab][Trp(1-CH2COOH)][NMeNle][NMeNle]LCG-NH2; thioether N-14)
11	CCCC[C@H]1C(=O)N(C)[C@@H](CCCC)C(=O)N[C@@H](CC(C)C)C(=O)N[C@H](C(=O)NCC(N)=O)CSCC(=O)N[C@@H](Cc2ccc(O)cc2)C(=O)N(C)[C@@H](C)C(=O)N[C@@H](CC(N)=O)C(=O)N2CCC[C@H]2C(=O)N[C@@H](CNc2nccc(-c3ccccc3)n2)C(=O)N[C@@H](CC(C)C)C(=O)N2C[C@H](O)C[C@H]2C(=O)N[C@@H](Cc2c[nH]c3ccccc23)C(=O)N[C@@H](CCN)C(=O)N[C@@H](Cc2cn(CC(=O)O)c3ccccc23)C(=O)N1C [Compound 1006] ({CH2CO}-Y[NMeA]NP[Dap](X18)L[Hyp]W[Dab][Trp(1-CH2COOH)][NMeNle][NMeNle]LCG-NH2; thioether N-14)
11	CCCC[C@H]1C(=O)N(C)[C@@H](CCCC)C(=O)N[C@@H](CC(C)C)C(=O)N[C@H](C(=O)NCC(N)=O)CSCC(=O)N[C@@H](Cc2ccc(O)cc2)C(=O)N(C)[C@@H](C)C(=O)N[C@@H](CC(N)=O)C(=O)N2CCC[C@H]2C(=O)N[C@@H](CNc2cnccn2)C(=O)N[C@@H](CC(C)C)C(=O)N2C[C@H](O)C[C@H]2C(=O)N[C@@H](Cc2c[nH]c3ccccc23)C(=O)N[C@@H](CCN)C(=O)N[C@@H](Cc2cn(CC(=O)O)c3ccccc23)C(=O)N1C [Compound 1005] ({CH2CO}-Y[NMeA]NP[Dap](X15)L[Hyp]W[Dab][Trp(1-CH2COOH)][NMeNle][NMeNle]LCG-NH2; thioether N-14)
6.5	CCCC[C@H]1C(=O)N(C)[C@@H](CCCC)C(=O)N[C@@H](CC(C)C)C(=O)N[C@H](C(=O)NCC(N)=O)CSCC(=O)N[C@@H](Cc2ccc(O)cc2)C(=O)N(C)[C@@H](C)C(=O)N[C@@H](CC(N)=O)C(=O)N2CCC[C@H]2C(=O)N[C@@H](CNc2nc(SC)nc3c2sc2ccccc23)C(=O)N[C@@H](CC(C)C)C(=O)N2C[C@H](O)C[C@H]2C(=O)N[C@@H](Cc2c[nH]c3ccccc23)C(=O)N[C@@H](CCN)C(=O)N[C@@H](Cc2cn(CC(=O)O)c3ccccc23)C(=O)N1C [Compound 21008] ({CH2CO}-Y[NMeA]NP[Dap](X2)L[Hyp]W[Dab][Trp(1-CH2COOH)][NMeNle][NMeNle]LCG-NH2; thioether N-14)

From patent US20230022400A1, “IMMUNOMODULATORS” (Bristol-Myers Squibb Company, priority 2019, published 2023)
